Measurements from ChEMBL document CHEMBL1795238, “Structure-brain exposure relationships in rat and human using a novel data set of unbound drug concentrations in brain interstitial and cerebrospinal fluids” (J Med Chem, 2009).

Key:
Plasma [1] = conditions: rat, iv, 4 h
Brain = conditions: rat, in vivo, iv, 4 h
[2] = Sprague-Dawley, rat, brain, iv, 2 (umol/kg)/hr, 4 h
[3] = Sprague-Dawley, rat, iv, 2 (umol/kg)/hr, 4 h
in vivo [4] = conditions: Sprague-Dawley, rat, csf, iv, 2 (umol/kg)/hr
in vitro = conditions: Sprague-Dawley, rat, plasma, iv, 2 (umol/kg)/hr
clinical = conditions: human, CSF and plasma
Description: Unbound CSF to plasma concentration ratio in human

Plasma [5] = conditions: rat, iv, 4 h, BLD = below limit of detection
in vivo [6] = conditions: Sprague-Dawley, rat, brain, iv, 2 (umol/kg)/hr
in vivo [7] = conditions: Sprague-Dawley, rat, brain and plasma, iv, 2 (umol/kg)/hr

Compound | Cp(f) (Plasma [1]) [nM] | Vdu (Brain) | BPR [2] | K(p,uu,brain) [3] | Kp uu at 4 h (in vivo [4]) | fraction unbound at 4 h (in vitro) | Kp uu (clinical) | K(p,uu,CSF) (Plasma [5]) | Kp at 4 h (in vivo [6]) | Kp uu at 4 h (in vivo [7])
CO/N=C(\C(=O)N[C@@H]1C(=O)N2C(C(=O)O)=C(COC(C)=O)CS[C@H]12)c1csc(N)n1 [CEFOTAXIME] | 2800 | ND(Unstable) | ND(Unstable) | ND(Unstable) | 0.007 | 0.59 | 0.17 | – | – | –
CC(=O)O[C@H]1C(=O)[C@@]2(C)[C@H]([C@H](OC(=O)c3ccccc3)[C@]3(O)C[C@H](OC(=O)[C@H](O)[C@@H](NC(=O)c4ccccc4)c4ccccc4)C(C)=C1C3(C)C)[C@]1(OC(C)=O)CO[C@@H]1C[C@@H]2O [PACLITAXEL] | 16 | 769 mL | – | – | – | 0.05 | – | BLD | 0.28 | 0.007
